Results: BindingDB's records for patent US20250313535 (Dice Molecules Sv, 2025)

Molecular target: Integrin alpha-4/beta-7 (Homo sapiens, UniProt P13612+P26010)
Test: Inhibition of α4β7 and α4β1 Integrins
Description: MAdCAM (R&D Systems, 0.1 ug) was diluted in 50 μL PBS, added to each well of an opaque ELISA plate (Thermo), and incubated overnight at 4° C. Coated plates were washed once with PBS and then blocked with 200 μL of assay buffer (10 mM HEPES, 150 mM NaCl, 1 mM MnCl2, 0.1 mM CaCl2), 1% BSA) for 1 hour at 37° C. and 5% CO2. After incubation, buffer was aspirated from the plates and 50 μL of fresh assay buffer is added. Compounds were added by a compouns dispenser (Tecan) and DMSO concentration was normalized to 1% across each plate. 50 μL of RPMI-8866 cells (2×10^6 per mL) were added to each well and the plates were incubated for 1 hour at 37° C. and 5% CO2. After incubation, plates were allowed to cool to RT for 10 minutes before being washed four times in assay buffer by an automated plate washer (BioTek). After washing, 100 μL of a 1:1 mixture of assay buffer and CellTiter GLO 2.0 reagent (Promega) were added to each well. Plates were mixed for 2 minutes at 1000 rpm and then allowed to incubate an additional 10 minutes before reading out luminescence on a Tecan Spark plate reader. Raw data was converted to percent inhibition based on DMSO only and control compound wells, and curves were analyzed by 4-parameter fit within Dotmatics software.

Integrin alpha-4/beta-7, sequence (P13612 whole entry): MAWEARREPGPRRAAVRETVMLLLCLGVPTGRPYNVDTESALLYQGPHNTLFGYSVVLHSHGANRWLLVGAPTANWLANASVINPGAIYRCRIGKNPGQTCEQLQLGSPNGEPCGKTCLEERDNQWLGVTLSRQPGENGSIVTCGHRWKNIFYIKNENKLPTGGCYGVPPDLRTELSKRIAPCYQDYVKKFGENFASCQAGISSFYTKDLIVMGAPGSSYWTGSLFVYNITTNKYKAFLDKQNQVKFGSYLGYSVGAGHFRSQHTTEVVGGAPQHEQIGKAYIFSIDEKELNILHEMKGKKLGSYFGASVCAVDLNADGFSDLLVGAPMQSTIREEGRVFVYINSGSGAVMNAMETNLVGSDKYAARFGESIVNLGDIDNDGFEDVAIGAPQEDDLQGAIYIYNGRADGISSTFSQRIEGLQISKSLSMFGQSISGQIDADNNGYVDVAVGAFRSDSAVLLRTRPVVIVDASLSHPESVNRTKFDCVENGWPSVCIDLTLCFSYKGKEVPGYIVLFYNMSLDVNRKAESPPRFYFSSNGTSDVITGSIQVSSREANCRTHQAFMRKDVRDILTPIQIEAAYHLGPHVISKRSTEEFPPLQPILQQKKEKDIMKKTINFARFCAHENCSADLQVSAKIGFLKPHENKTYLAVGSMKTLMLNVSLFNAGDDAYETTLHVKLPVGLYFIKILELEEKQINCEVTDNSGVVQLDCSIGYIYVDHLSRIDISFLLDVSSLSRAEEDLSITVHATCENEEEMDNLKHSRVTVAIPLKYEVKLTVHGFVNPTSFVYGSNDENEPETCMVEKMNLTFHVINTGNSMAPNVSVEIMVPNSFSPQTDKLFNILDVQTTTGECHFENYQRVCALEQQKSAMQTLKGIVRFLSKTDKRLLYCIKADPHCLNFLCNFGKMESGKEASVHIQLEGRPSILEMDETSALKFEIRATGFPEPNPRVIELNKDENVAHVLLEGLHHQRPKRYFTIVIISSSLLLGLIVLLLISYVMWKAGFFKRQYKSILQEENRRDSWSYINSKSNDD
Integrin alpha-4/beta-7, sequence (P26010 whole entry): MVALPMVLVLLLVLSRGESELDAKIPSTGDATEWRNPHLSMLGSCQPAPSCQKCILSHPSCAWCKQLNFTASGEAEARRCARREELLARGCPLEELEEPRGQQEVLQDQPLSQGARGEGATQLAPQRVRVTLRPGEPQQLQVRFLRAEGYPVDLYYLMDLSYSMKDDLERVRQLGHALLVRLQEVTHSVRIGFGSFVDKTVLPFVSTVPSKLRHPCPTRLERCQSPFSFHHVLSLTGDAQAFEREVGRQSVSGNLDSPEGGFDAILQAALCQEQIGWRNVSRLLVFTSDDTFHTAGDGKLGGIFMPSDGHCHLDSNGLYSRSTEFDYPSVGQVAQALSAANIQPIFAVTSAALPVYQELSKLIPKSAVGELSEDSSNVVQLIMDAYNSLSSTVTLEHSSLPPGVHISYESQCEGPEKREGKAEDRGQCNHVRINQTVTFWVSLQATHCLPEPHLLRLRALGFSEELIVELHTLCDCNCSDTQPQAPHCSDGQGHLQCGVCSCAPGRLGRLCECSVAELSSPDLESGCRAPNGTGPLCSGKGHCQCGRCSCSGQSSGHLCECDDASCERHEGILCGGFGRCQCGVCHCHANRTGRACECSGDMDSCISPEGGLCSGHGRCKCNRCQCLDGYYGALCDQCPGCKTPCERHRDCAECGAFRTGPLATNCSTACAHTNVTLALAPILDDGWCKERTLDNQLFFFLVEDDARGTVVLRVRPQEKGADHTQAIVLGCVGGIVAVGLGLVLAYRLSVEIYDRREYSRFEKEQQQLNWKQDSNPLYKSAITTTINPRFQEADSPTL

SMILES | IC50
Cn1c(=O)c(-c2cccc3c(C[C@H](NC(=O)c4c(F)cc(NC5CCC(F)(F)C5)cc4F)C(=O)O)cccc23)c(C(F)(F)F)c2ccccc21 (some centres not stated) [US20250313535, Compound 386] | > 100 nM
Cn1ccc(C(F)(F)F)c(-c2nccc3c(C[C@H](NC(=O)c4c(F)cc(N(CC(F)(F)F)CC(F)(F)F)cc4F)C(=O)O)cccc23)c1=O [US20250313535, Compound 237] | < 10 nM
